Assay results from the NIST ThermoML archive (doi:10.1016/j.jct.2013.12.033).
Numbers after ± are expanded uncertainties.

Details: Liquid, Closed cell (Static) method

SMILES	vapor or sublimation pressure (273.15 K)	vapor or sublimation pressure (283.15 K)	vapor or sublimation pressure (293.15 K)	vapor or sublimation pressure (303.15 K)	vapor or sublimation pressure (313.15 K)	vapor or sublimation pressure (323.15 K)	vapor or sublimation pressure (333.15 K)	vapor or sublimation pressure (343.15 K)	vapor or sublimation pressure (353.15 K)	vapor or sublimation pressure (363.15 K)
c1ccncc1 [pyridine]	0.5993 ± 0.037 kPa	1.136 ± 0.071 kPa	2.049 ± 0.12 kPa	3.535 ± 0.21 kPa	5.863 ± 0.35 kPa	9.383 ± 0.56 kPa	14.55 ± 0.88 kPa	21.92 ± 1.3 kPa	32.17 ± 1.9 kPa	46.13 ± 2.8 kPa
c1ccsc1 [thiophene]	2.778 ± 0.17 kPa	4.893 ± 0.29 kPa	8.217 ± 0.49 kPa	13.23 ± 0.8 kPa	20.52 ± 1.2 kPa	30.8 ± 1.9 kPa	44.88 ± 2.7 kPa	63.71 ± 3.8 kPa	88.33 ± 5.3 kPa	119.9 ± 7.2 kPa
